Results on 10 molecules are retold here after patent US20230064189A1, “1H-PYRAZOLO[3,4-D]PYRIMIDINE COMPOUNDS USEFUL FOR THE TREATMENT OF PLATINUM-RESISTANT CANCER” (IMPERIAL COLLEGE INNOVATIONS LIMITED, priority 2019, published 2023).

One experiment concerns the target DNA-PK (Homo sapiens, UniProt P78527). Description: DNA-PK enzymatic inhibition assay (HTRF KinEASE). The note with it: read-out: DNA-PK pIC50 (converted). The class given is biochemical. The method, then: The IC50 values of Example compounds of the invention for DNA-PK were measured using the HTRF KinEASE assay as described above.
On the technique in general: In TR-FRET formats the signal depends on donor and acceptor labels being close together.

The target of the next experiment is AKT1 (Homo sapiens, UniProt P31749). In words: AKT1 enzymatic inhibition assay (HTRF KinEASE). The note with it: read-out: AKT1 pIC50 (converted). The class given is biochemical. The protocol: (§1) The IC50 values of Example compounds of the invention for AKT1, AKT2 and AKT3 were measured using HTRF (Homogeneous Time Resolved Fluorescence) KinEASE assays (62ST3PEB—1000 tests or 62ST3PEC—20,000 tests) from cisbio.com, according to manufacturer's instructions.
AKT1, sequence (P31749 150-408 limits assumed): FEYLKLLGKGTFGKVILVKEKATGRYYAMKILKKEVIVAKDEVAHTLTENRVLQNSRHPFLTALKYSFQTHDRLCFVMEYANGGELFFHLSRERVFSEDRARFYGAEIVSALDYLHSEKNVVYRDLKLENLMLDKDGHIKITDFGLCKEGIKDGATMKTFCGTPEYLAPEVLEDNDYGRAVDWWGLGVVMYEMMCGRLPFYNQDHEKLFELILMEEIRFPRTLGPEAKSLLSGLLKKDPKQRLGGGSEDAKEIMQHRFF

For a further experiment, the target named is AKT3 (Homo sapiens, UniProt Q9Y243). In words: AKT3 enzymatic inhibition assay (HTRF KinEASE). The class given is biochemical. The note with it: read-out: AKT3 pIC50 (converted). The protocol: as §1
AKT3, sequence (Q9Y243 148-405 limits assumed): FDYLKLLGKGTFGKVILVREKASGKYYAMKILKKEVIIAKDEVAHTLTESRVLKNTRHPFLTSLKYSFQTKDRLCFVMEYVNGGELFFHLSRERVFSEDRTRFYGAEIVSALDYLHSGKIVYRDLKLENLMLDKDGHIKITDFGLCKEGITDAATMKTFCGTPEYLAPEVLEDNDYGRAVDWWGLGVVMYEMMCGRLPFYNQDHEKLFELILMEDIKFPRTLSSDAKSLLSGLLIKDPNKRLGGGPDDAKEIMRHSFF
The next experiment concerns SKOV3 cells. Description: Phenotypic apoptosis assay (caspase 3/7 normalised to MTT) plus/minus cisplatin in SKOV3. The class given is cell-based. The note with it: for activity in phenotypic in vitro apoptosis platinum re-sensitisation assays: inhibitor 6.67 μM + cisplatin 25 μM. The method, then: Data shown is n=3±s.e.m; ** p<0.01, * p<0.0^5.
(§2) MTT is bioreduced by mitochondrial dehydrogenase enzymes into a coloured solid formazan product. MTT reagent (Sigma, UK) was initially prepared by dissolving in PBS at a concentration of 3 mg/ml. […] After incubation for 3 h at 37° C. 5% CO2, an equal volume of stop solution (10% SDS in 0.01% HCl) was added and formed formazan crystals were allowed to dissolve shaking overnight. The following day, the optical density was read at 570 nm and analysis performed as per each assay type.
(§3) The caspase 3/7 activity of cells following treatment with inhibitor compounds or vehicle (DMSO) was determined using the Caspase-Glo® 3/7 Assay (Catalogue number G8093, Promega, US) according to manufacturer's instructions. Briefly, 10,000 cells per well for PEO1 and PEO4 cell lines or 5000 cells per well for SKOV3 cell line were grown in 96 well plates in a final volume of 50 μl and following relevant drug treatment of cells (example compound±cisplatin, comparative example compound±cisplatin, or vehicle±cisplatin) for 24 hours, an equal volume of Caspase-Glo® Reagent containing a luminogenic substrate for Caspase 3 and Caspase 7 was added i.e. if cells cultured in 50 μl of media, 50 μl of caspase reagent was added. After 1 h incubation at room temperature in the dark, the luminescence of each sample was measured in a plate-reading luminometer (LUMIstar OPTIMA, BMG Labtech, Germany). Caspase 3/7 activity data was normalised to corresponding viability data from MTT and analysis was performed according to each experimental set-up.
(§4) Phenotypic apoptosis assays were performed to determine the level of caspase 3/7 dependent apoptotic induction of each inhibitor compound in the presence or absence of cisplatin (cddp). PEO4 and SKOV3 cells were seeded out 24 hours prior to drug treatments. […] 5% CO2. […] Duplicate plates were set up for each experiment for caspase and MTT assays. Caspase and MTT assays were carried out according to the protocols described above.
(§5) Data shown in FIGS. 2A and 2B are n=3±s.e.m. Statistical significance was calculated using student t-test using GraphPad Prism software ** p<0.01, * p<0.05.

Experiment [1] concerns PEO4 cells. Description: Relative re-sensitisation ratio of apoptosis induction (caspase 3/7 normalised to MTT) with cisplatin. The note with it: compound at 20 μM, triciribine at 25 μM, cisplatin 25 μM, 24 h. The class given is cell-based. The protocol:
Cell viability was determined for different assays (as described in FIGS. 1 and 2, Table 5) in optically clear 96 well plates using the standard 3-(4, 5-dimethylthiazol-2-yl)-2, 5-diphenyl tetrazolium bromide (MTT) assay, which is a colorimetric method for determining the number of metabolically active cells in cytotoxicity assays. MTT is bioreduced by mitochondrial dehydrogenase enzymes into a coloured solid formazan product. MTT reagent (Sigma, UK) was initially prepared by dissolving in PBS at a concentration of 3 mg/ml. Following relevant drug treatments at different time points and cell lines (described in results section and FIGS. 1 and 2), MTT reagent was added to each experimental well at a final concentration of 0.5 mg/ml. After incubation for 3 h at 37° C. 5% CO2, an equal volume of stop solution (10% SDS in 0.01% HCl) was added and formed formazan crystals were allowed to dissolve shaking overnight. The following day, the optical density was read at 570 nm and analysis performed as per each assay type.
as §3
. Apoptosis (caspase 3/7) and viability (MTT) assays were carried out as described for each assay protocols and the phenotypic apoptosis assays above. Relative apoptosis induction was inferred from caspase 3/7 assay values normalised to the standard MTT viability assay values of each corresponding well. […]

The next experiment deals with AKT2 (Homo sapiens, UniProt P31751). Description: AKT2 enzymatic inhibition assay (HTRF KinEASE). The class given is biochemical. The following applies: read-out: AKT2 pIC50 (converted). The protocol: as §1
AKT2, sequence (P31751 152-409 limits assumed): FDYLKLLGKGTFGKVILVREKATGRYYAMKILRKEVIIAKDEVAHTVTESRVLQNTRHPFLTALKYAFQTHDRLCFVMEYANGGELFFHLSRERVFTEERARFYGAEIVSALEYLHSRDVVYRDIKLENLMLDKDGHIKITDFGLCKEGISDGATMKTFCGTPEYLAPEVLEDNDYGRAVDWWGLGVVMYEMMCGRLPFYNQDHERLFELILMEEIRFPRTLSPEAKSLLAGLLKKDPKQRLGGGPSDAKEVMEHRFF
Experiment [2] concerns PEO4 cells. Description: Phenotypic apoptosis assay (caspase 3/7 normalised to MTT) plus/minus cisplatin in PEO4. The class given is cell-based. The following applies: 24 hours. The method, then: as §2, §3, §4, §5
In experiment [3] the test system is platinum resistant epithelial ovarian cancer cell line SKOV3. Description: Isobologram (Loewe synergy/antagonism, MTT viability) with cisplatin in SKOV3. The class given is cell-based. The note with it: SKOV3, 72 hours, MTT readout. The protocol:
(§6) . Data shown is n=3. Decreasing negative numbers within each table indicate increasing levels of antagonism, increasing positive numbers indicate increasing levels of synergy between cisplatin and inhibitor compounds.
(§7) Cell viability was determined for different assays (as described in FIGS. 1 and 2, Table 5) in optically clear 96 well plates using the standard 3-(4, 5-dimethylthiazol-2-yl)-2, 5-diphenyl tetrazolium bromide (MTT) assay, which is a colorimetric method for determining the number of metabolically active cells in cytotoxicity assays. MTT is bioreduced by mitochondrial dehydrogenase enzymes into a coloured solid formazan product. […] The following day, the optical density was read at 570 nm and analysis performed as per each assay type.
(§8) All cell lines (PEO1, PEO4 and SKOV3) were seeded out 24 hours prior to treatment into 96 well plates at 10,000 cells per well in triplicate for each inhibitor compound. […] Following 72 hours incubation, cell viability was assessed using the MTT assay (n=3). IC50 values for each compound was determined using GraphPad Prism software, non-linear regression of log (inhibitor) versus response (three parameters). All isobologram assays used the standard MTT protocol as described above for assay readout. […] Following 72 h incubation, cell viability was assessed using MTT assays as described above. […]

In experiment [4] the test system is platinum resistant cell line PEO4. Description: Isobologram (Loewe synergy/antagonism, MTT viability) with cisplatin in PEO4. The class given is cell-based. The note with it: PEO4, 72 hours, MTT readout. The protocol:
as §6, §7, §8

Experiment [5] deals with platinum sensitive cell line PEO1. In words: Isobologram (Loewe synergy/antagonism, MTT viability) with cisplatin in PEO1. The class given is cell-based. The following applies: PEO1, 72 hours, MTT readout. The method, then:
as §6, §7, §8

Setting [6] is: inhibitor 10 μM + cisplatin 25 μM.
[7] abbreviates: inhibitor 10 μM + cisplatin 25 μM, 24 hours.

SMILES strings stand for the structures.

As for `CN(C)CCNC(c1ccc(Cl)cc1)C1CCN(c2ncnc3[nH]nc(C(F)(F)F)c23)CC1` (single isomer, unassigned; (+)) [Example 12a, (+)-N^1-((4-chlorophenyl)(1-(3-(trifluoromethyl)-1H-pyrazolo[3,4-d]pyrimidin-4-yl)piperidin-4-yl)methyl)-N^2,N^2-dimethylethane-1,2-diamine], the IC50 on DNA-PK is 0.158 nM; on AKT1, 0.575 nM; on AKT3, 0.219 nM; on AKT2, 1.41 nM. Also, the “activity in phenotypic in vitro apoptosis platinum re-sensitisation assays” value (shortened to “activity in phenotypic”) in the experiment with SKOV3 cells is recorded as “active”. The “Relative re-sensitisation ratio of apoptosis induction (caspase 3/7) relative to triciribine phosphate” value (from here on “Relative re-sensitisation ratio”) in the experiment on PEO4 cells [1] is 1.2.
Turning to `CN(C)CCNC(c1ccc(Cl)cc1)C1CCN(c2ncnc3[nH]nc(C(F)(F)F)c23)CC1` (single isomer, unassigned; (-)) [Example 12b, (−)-N^1-((4-chlorophenyl)(1-(3-(trifluoromethyl)-1H-pyrazolo[3,4-d]pyrimidin-4-yl)piperidin-4-yl)methyl)-N^2,N^2-dimethylethane-1,2-diamine], the IC50 at DNA-PK was 5.37 nM; at AKT1 it was 3.39 nM; on AKT3, 0.832 nM; at AKT2, 5.5 nM. Moreover, the “activity in phenotypic” value in the experiment on SKOV3 cells is “active”. In addition, the “Relative re-sensitisation ratio” value in the experiment with PEO4 cells [1] worked out at 1.0.
Turning to `Cn1ncc(Cl)c1-c1cc(C(=O)N[C@H](CN)Cc2cccc(F)c2)sc1Cl` [Afuresertib, N-[(2S)-1-amino-3-(3-fluorophenyl)propan-2-yl]-5-chloro-4-(4-chloro-2-methylpyrazol-3-yl)thiophene-2-carboxamide], the “apoptosis (re-sensitisation) in combination with cisplatin” value in the experiment with PEO4 cells [2] (setting [6]) and with SKOV3 cells (setting [7]) was “showed re-sensitisation” throughout.
For `CN(C)CC(c1ccc(Cl)cc1)N1CCN(c2ncnc3[nH]nc(Br)c23)CC1` (centres unmarked) [Example 1, 2-[4-(3-bromo-1H-pyrazolo[3,4-d]pyrimidin-4-yl)piperazin-1-yl]-2-(4-chlorophenyl)-N,N-dimethyl-ethanamine], the IC50 at DNA-PK is 0.24 nM; at AKT1, 0.324 nM; on AKT3 it was 0.112 nM; at AKT2, 0.55 nM. In addition, the “synergy in combination with cisplatin (Loewe isobologram analysis)” value in experiment [3] is “strong synergy”; in experiment [4], “strong synergy”; in experiment [5], “superior synergy”. The “apoptosis (re-sensitisation) in combination with cisplatin compared to cisplatin alone” value with PEO4 cells [2] (inhibitor 2 μM + cisplatin 25 μM) is “statistically significant increases in apoptosis”; in the experiment on SKOV3 cells (inhibitor 2 μM + cisplatin 25 μM, 24 hours), “statistically significant increases in apoptosis”. Further, the “activity in phenotypic” value in the experiment with SKOV3 cells was “active”. Besides, the “Relative re-sensitisation ratio” value in the experiment with PEO4 cells [1] was 3.0.
Take `CN(C)CCOC(c1ccc(Cl)cc1)C1CCN(c2ncnc3[nH]nc(Br)c23)CC1` (centres unmarked) [Example 2, 2-((1-(3-bromo-1H-pyrazolo[3,4-d]pyrimidin-4-yl)piperidin-4-yl)(4-chlorophenyl)methoxy)-N,N-dimethylethan-1-amine]: the IC50 was 3.89 nM at DNA-PK, 5.75 nM on AKT1, 3.63 nM on AKT3 and 10.5 nM at AKT2. Moreover, the “activity in phenotypic” value in the experiment with SKOV3 cells was “active”. Further, the “Relative re-sensitisation ratio” value with PEO4 cells [1] came out at 2.9.
For `CCn1c(-c2nonc2N)nc2c(C#CC(C)(C)O)ncc(OC[C@H]3CCCNC3)c21` [GSK-3g, 4-[2-(4-amino-1,2,5-oxadiazol-3-yl)-1-ethyl-7-[[(3S)-piperidin-3-yl]methoxy]imidazo[4,5-c]pyridin-4-yl]-2-methylbut-3-yn-2-ol, reference compound], the IC50 on DNA-PK was 10.5 nM. In the experiment on SKOV3 cells, the “activity in phenotypic” value is “inactive”.
As for `CC(C)NC[C@@H](C(=O)N1CCN(c2ncnc3c2[C@H](C)C[C@H]3O)CC1)c1ccc(Cl)cc1` [Ipatasertib, (2S)-2-(4-chlorophenyl)-1-[4-[(5R,7R)-7-hydroxy-5-methyl-6,7-dihydro-5H-cyclopenta[d]pyrimidin-4-yl]piperazin-1-yl]-3-(propan-2-ylamino)propan-1-one], the “apoptosis (re-sensitisation) in combination with cisplatin” value is “showed re-sensitisation” in the experiment on PEO4 cells [2] (inhibitor 20 μM + cisplatin 25 μM) and “showed re-sensitisation” with SKOV3 cells (inhibitor 20 μM + cisplatin 25 μM, 24 hours).
Regarding `CO[C@@H](C)Cn1c(=O)n(C)c2cnc3ccc(-c4cncc(C(C)(C)O)c4)cc3c21` [LY3023414, 8-[5-(2-hydroxypropan-2-yl)pyridin-3-yl]-1-[(2S)-2-methoxypropyl]-3-methylimidazo[4,5-c]quinolin-2-one], the “apoptosis (re-sensitisation) in combination with cisplatin” value in the experiment with PEO4 cells [2] (setting [6]) and in the experiment with SKOV3 cells (setting [7]) was “showed re-sensitisation” in each case.
In the case of `O=c1cc(N2CCOCC2)oc2c(-c3cccc4c3sc3ccccc34)cccc12` [NU7441, 8-dibenzothiophen-4-yl-2-morpholin-4-ylchromen-4-one], the “apoptosis (re-sensitisation) in combination with cisplatin” value in the experiment with PEO4 cells [2] (setting [6]) and with SKOV3 cells (setting [7]) was “showed re-sensitisation” in each case.
As to `Cn1ncc(Cl)c1-c1cc(C(=O)N[C@H](CN)Cc2ccc(F)c(F)c2)oc1Cl` [Uprosertib, N-[(2S)-1-amino-3-(3,4-difluorophenyl)propan-2-yl]-5-chloro-4-(4-chloro-2-methylpyrazol-3-yl)furan-2-carboxamide], the “apoptosis (re-sensitisation) in combination with cisplatin” value in the experiment on PEO4 cells [2] (setting [6]) and in the experiment with SKOV3 cells (setting [7]) was “showed re-sensitisation” throughout.
